Test [1] deals with amino acid dehydrogenase. The test is described as follows: Substrate specificity of the purified amino acid dehydrogenase (reductive amination of 2-oxo acids). In kind it is biochemical, Rhodococcus qingshengii strain KNK2108. To be noted: activity for phenylpyruvic acid = 100%; 30° C., pH 9.0; naphthylpyruvic and indolepyruvic acid by HPLC of the product formed in 30 minutes. The protocol:
In the embodiments, the amino acid dehydrogenase activity of the polypeptide can be measured, for example, based on the rate of decline in the absorbance at a wavelength of 340 nm when 1.2 mL of 0.5 M NH3/NH4Cl buffer (pH 9.0), 0.2 mL of 0.1 M sodium carbonate buffer (pH 9.0) containing 3 mM NADH coenzyme, and 0.1 mL of an appropriately diluted enzyme solution are added to 1.5 mL of 0.1 M sodium carbonate buffer (pH 9.0) containing 10 mM phenylpyruvic acid as substrate and a reaction is run for 1 minute at 30° C. In the embodiments, the amino acid dehydrogenase activity was measured using this method unless indicated otherwise.
The activity of the amino acid dehydrogenase was measured based on the rate of decline in the absorbance at a wavelength of 340 nm when 1.2 mL of 0.5 M NH3/NH4Cl buffer (pH 9.0), 0.2 mL of 0.1 M sodium carbonate buffer (pH 9.0) that contained 3 mM NADH coenzyme, and 0.1 mL of the appropriately diluted enzyme solution were added to 1.5 mL of 0.1 M sodium carbonate buffer (pH 9.0) that contained 10 mM phenylpyruvic acid substrate and a reaction was carried out for 1 minute at 30° C. 1 unit is defined here as the quantity of enzyme that consumed 1 μmol NADH in 1 minute. The protein was quantified by the Bradford method using BSA as the reference protein.
The substrate specificity of the purified amino acid dehydrogenase was investigated. The enzyme activity was measured by using each substrate in place of the phenylpyruvic acid substrate in the procedure previously described for measuring the enzyme activity. In the case of the enzyme activity for naphthylpyruvic acid, 100 μL of the appropriately diluted enzyme solution was added to 100 μL of 0.1 M sodium carbonate buffer (pH 9.0) that contained 1.0 mg naphthylpyruvic acid, 12.3 mg ammonium sulfate, and 6.1 mg NADH and the increment in the 2-naphthylalanine produced in 30 minutes at 30° C. was determined by quantitation by HPLC. The HPLC analysis was run using the following: column: COSMOSIL 5C18-ARII (4.6 mm×250 mm, Nacalai Tesque, Inc.), eluent: 10 mM potassium phosphate buffer (pH 2.0)/acetonitrile=5/1, flow rate: 1.0 mL/min, column temperature: 40° C., detection: 210 nm. Here, 1 unit is defined as the quantity of enzyme that produces 1 μmol 2-naphthylalanine in 1 minute. In the case of the enzyme activity for indolepyruvic acid, 100 μL of the appropriately diluted enzyme solution was added to 100 μL of 0.1 M sodium carbonate buffer (pH 9.0) that contained 2.0 mg indolepyruvic acid, 26.0 mg ammonium sulfate, and 7.6 mg NADH and the increment in the L-tryptophan produced in 30 minutes at 30° C. was determined by quantitation by HPLC. The HPLC analysis was run using the following: column: CROWNPAK CR—(4.6 mm×150 mm, Daicel Chemical Industries, Ltd.), eluent: aqueous HClO4 (pH 2.0), flow rate: 1.0 mL/min, column temperature: 30° C., detection: 210 nm. Here, 1 unit is defined as the quantity of enzyme that produces 1 μmol L-tryptophan in 1 minute.

Test [2] deals with Rhodococcus maris-derived phenylalanine dehydrogenase. To be noted: cited from earlier work.
In test [3] the target is Rhodococcus sp.-derived phenylalanine dehydrogenase (Rhodococcus sp, UniProt Q59771). To be noted: cited from earlier work.
Test [4] concerns the target Thermoactinomyces intermedius-derived phenylalanine dehydrogenase (Thermoactinomyces intermedius, UniProt P22823). The settings on record: cited from earlier work.
For test [5], the target named is Bacillus sphaericus-derived phenylalanine dehydrogenase (Lysinibacillus sphaericus, UniProt P23307). To be noted: cited from earlier work.
The subject of test [6] is Microbacterium sp.-derived phenylalanine dehydrogenase. The settings on record: cited from earlier work.
Test [7] deals with T1, Sporosarcina ureae-derived phenylalanine dehydrogenase (Sporosarcina ureae, UniProt P97014).
T1 sequence (P97014 1-379): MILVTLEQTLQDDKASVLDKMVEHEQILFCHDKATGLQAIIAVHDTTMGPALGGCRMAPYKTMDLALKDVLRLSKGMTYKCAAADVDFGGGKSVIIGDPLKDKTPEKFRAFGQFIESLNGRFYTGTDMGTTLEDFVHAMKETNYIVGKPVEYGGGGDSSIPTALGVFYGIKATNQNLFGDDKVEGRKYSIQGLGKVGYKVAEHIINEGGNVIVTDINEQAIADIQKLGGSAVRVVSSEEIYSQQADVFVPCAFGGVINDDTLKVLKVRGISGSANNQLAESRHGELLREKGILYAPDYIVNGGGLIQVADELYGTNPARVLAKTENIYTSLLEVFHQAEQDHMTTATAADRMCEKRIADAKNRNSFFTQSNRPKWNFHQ
The settings on record: cited from earlier work.

Sequence of Bacillus sphaericus-derived phenylalanine dehydrogenase (P23307 whole entry): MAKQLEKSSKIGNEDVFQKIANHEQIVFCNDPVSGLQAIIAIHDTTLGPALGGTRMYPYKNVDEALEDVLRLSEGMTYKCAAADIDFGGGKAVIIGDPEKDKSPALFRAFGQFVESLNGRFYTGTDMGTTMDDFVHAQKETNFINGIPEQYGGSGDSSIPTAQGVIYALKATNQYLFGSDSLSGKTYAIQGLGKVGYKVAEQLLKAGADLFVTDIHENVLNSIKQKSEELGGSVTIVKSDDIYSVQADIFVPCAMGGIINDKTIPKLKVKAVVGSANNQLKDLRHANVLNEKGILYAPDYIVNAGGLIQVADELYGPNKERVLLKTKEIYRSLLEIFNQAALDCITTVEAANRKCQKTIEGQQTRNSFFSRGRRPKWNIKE
Sequence of Rhodococcus sp.-derived phenylalanine dehydrogenase (Q59771 whole entry): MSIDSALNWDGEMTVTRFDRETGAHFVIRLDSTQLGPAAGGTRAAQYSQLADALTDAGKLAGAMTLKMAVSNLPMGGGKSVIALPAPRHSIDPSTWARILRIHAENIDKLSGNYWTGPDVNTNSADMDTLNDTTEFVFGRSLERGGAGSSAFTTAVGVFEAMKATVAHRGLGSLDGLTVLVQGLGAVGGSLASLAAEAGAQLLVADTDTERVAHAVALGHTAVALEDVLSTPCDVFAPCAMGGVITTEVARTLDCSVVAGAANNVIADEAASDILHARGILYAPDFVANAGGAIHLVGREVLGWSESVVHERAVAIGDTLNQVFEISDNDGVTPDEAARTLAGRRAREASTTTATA
Sequence of Thermoactinomyces intermedius-derived phenylalanine dehydrogenase (P22823 whole entry): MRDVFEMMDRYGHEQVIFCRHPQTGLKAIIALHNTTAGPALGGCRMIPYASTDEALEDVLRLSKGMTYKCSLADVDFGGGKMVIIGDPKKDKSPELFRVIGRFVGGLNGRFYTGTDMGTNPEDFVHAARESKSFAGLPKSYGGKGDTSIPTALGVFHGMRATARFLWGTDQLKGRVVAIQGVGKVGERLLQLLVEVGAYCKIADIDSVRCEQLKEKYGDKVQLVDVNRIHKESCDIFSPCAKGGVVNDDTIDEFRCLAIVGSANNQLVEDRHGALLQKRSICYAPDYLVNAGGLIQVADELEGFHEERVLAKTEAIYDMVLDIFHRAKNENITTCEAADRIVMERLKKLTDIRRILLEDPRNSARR

On to `CSCCC(=O)C(=O)O` [2-Oxo-4-(methylthio)butanoic acid], for which the “Relative activity (%)” value in test [1] is 34.6%. Further, the “enzymatic activity taking the enzymatic activity for phenylpyruvic acid to be 100” value in test [2] is 9.
`CC(C)CC(=O)C(=O)O` [2-Oxo-4-methylvaleric acid]: the “Relative activity (%)” value in test [1] is 3.5%.
Regarding `O=C(O)C(=O)Cc1ccc(O)cc1` [4-Hydroxyphenylpyruvic acid], in test [1], the “Relative activity (%)” value amounted to 96.3%. Moreover, the “enzymatic activity taking the enzymatic activity for phenylpyruvic acid to be 100” value in test [3] is recorded as 5; in test [4], 0.
With `O=C(O)C(=O)CCc1ccccc1` [Homophenylpyruvic acid], the “Relative activity (%)” value in test [1] turned out to be 19.1%. The entries for the “enzymatic activity taking the enzymatic activity for phenylpyruvic acid to be 100” value in test [5] and in test [6] were 3.4 and 0.1, respectively.
For the compound `O=C(O)C(=O)Cc1c[nH]c2ccccc12` [Indolepyruvic acid], in test [1], the “Relative activity (%)” value is reported as 19.7%. The “enzymatic activity taking the enzymatic activity for phenylpyruvic acid to be 100” value is listed as 3 in test [3], 5 in test [2], 0.39 in test [5] and 0.73 in test [7].
As for `O=C(O)C(=O)Cc1ccccc1` [Phenylpyruvic acid], the “Relative activity (%)” value in test [1] was 100.0%.
Take Naphthylpyruvic acid: the “Relative activity (%)” value in test [1] was determined as 38.8%. For the same compound, in test [5], the “enzymatic activity taking the enzymatic activity for phenylpyruvic acid to be 100” value is 0.46.
